According to patent US20250360235A1, “RADI[…] AND METHOD FOR RADIOLABELLING” (Telix Innovations SA, priority 2024, published 2025):

How the values were obtained:
[1] = Visual inspection of [68Ga]PSMA-11 solution (acceptance: colourless to slightly yellow solution, free from visible particles); assay type: physicochemical; parameters: key: C = Conforms to specifications
Procedure: (§1) Table 1 to Table 5 show the results of various radiolabelling experiments on radiochemical purity and the chelation yield. The radiolabelling experiments in the tables are carried out as described in: • Example 1 for when the gallium-68 source is GE Liquid target generator and EZAG GalliaPharm generator; • Example 2 for when the gallium-68 source is IRE Galli Eo generator; • Example 3 for when the gallium-68 source is GE solid target generator;
(§2) However, the experiments were carried out with the amount of ascorbic acid as indicated in the Tables 1 to 5, and the activity as indicated in the Tables 1 to 5. Radiochemical purities were measured at various times (T0, T1, T4, T6) after the radiolabelled experiments have been conducted.
(§3) The kits of Example 1, Example 2 or Example 3, with amounts of ascorbic acid as set out in Table 7 were used in the experiments for the ascorbic acid bracketing matrix. Three strengths of [^68Ga]Ga-PSMA-11 will be tested, i.e. 50 mCi/ml, 7 mCi/ml and 1 mCi/ml. Radiochemical purity was determined at different time points (TO, T1, T4 or T6), as set out in Table 7.

[2] = as above; assay type: physicochemical; parameters: key: C = all results conform to specifications
Procedure: as §1, §2, §3

Measured: Visual Inspection

O=C([O-])CN(CCN(CC(=O)[O-])Cc1cc(CCC(=O)NCCCCCC(=O)NCCCC[C@H](NC(=O)N[C@@H](CCC(=O)O)C(=O)O)C(=O)O)ccc1[O-])Cc1cc(CCC(=O)O)ccc1[O-].[68Ga+3].[OH3+] [[^68Ga]PSMA-11, gallium-68 radiolabelled Glu-urea-Lys-HBED-CC (gozetotide or PSMA-11)]
C: [1]; bracketing ~1 mCi/mL, 18.75 mg ascorbic acid, 8.9-11.5 mCi, 0.85-1.09 mCi/mL, IRE Galli Eo, n=2, T0 | [1]; bracketing ~1 mCi/mL, 18.75 mg ascorbic acid, 8.9-11.5 mCi, 0.85-1.09 mCi/mL, IRE Galli Eo, n=2, T1 (1 h) | [1]; bracketing ~1 mCi/mL, 25 mg ascorbic acid, 8.8-12.7 mCi, 0.84-1.21 mCi/mL, 2 × IRE Galli Eo, n=2, T0 | [1]; bracketing ~1 mCi/mL, 25 mg ascorbic acid, 8.8-12.7 mCi, 0.84-1.21 mCi/mL, 2 × IRE Galli Eo, n=2, T1 (1 h) | [1]; bracketing ~1 mCi/mL, 31.25 mg ascorbic acid, 15.2-26.9 mCi, 1.44-2.54 mCi/mL, EZAG GalliaPharm, n=2, T0 | [1]; bracketing ~1 mCi/mL, 31.25 mg ascorbic acid, 15.2-26.9 mCi, 1.44-2.54 mCi/mL, EZAG GalliaPharm, n=2, T1 (1 h) | [1]; bracketing ~7 mCi/mL, 18.75 mg ascorbic acid, 51.0-58.0 mCi, 5.55-6.5 mCi/mL, IRE Galli Eo, n=2, T0 | [1]; bracketing ~7 mCi/mL, 18.75 mg ascorbic acid, 51.0-58.0 mCi, 5.55-6.5 mCi/mL, IRE Galli Eo, n=2, T4 (4 h) | [1]; bracketing ~7 mCi/mL, 25 mg ascorbic acid, 51.6-74.4 mCi, 4.56-6.92 mCi/mL, 3 × GE Liquid Target, 3 × IRE Galli Eo, 3 × EZAG GalliaPharm, n=9, T0 | [1]; bracketing ~7 mCi/mL, 25 mg ascorbic acid, 51.6-74.4 mCi, 4.56-6.92 mCi/mL, 3 × GE Liquid Target, 3 × IRE Galli Eo, 3 × EZAG GalliaPharm, n=9, T4 (4 h) | [1]; bracketing ~7 mCi/mL, 31.25 mg ascorbic acid, 61.5-62.0 mCi, 5.85-5.88 mCi/mL, EZAG GalliaPharm, n=2, T0 | [1]; bracketing ~7 mCi/mL, 31.25 mg ascorbic acid, 61.5-62.0 mCi, 5.85-5.88 mCi/mL, EZAG GalliaPharm, n=2, T4 (4 h) | [1]; bracketing ~50 mCi/mL, 20 mg ascorbic acid, 514-544 mCi, 48.3-51.9 mCi/mL, GE Solid Target, n=2, T0 | [1]; bracketing ~50 mCi/mL, 20 mg ascorbic acid, 514-544 mCi, 48.3-51.9 mCi/mL, GE Solid Target, n=2, T6 (6 h) | [1]; bracketing ~50 mCi/mL, 25 mg ascorbic acid, 537-551 mCi, 50.2-51.6 mCi/mL, GE Solid Target, n=3, T0 | [1]; bracketing ~50 mCi/mL, 25 mg ascorbic acid, 537-551 mCi, 50.2-51.6 mCi/mL, GE Solid Target, n=3, T6 (6 h) | [1]; bracketing ~50 mCi/mL, 31.25 mg ascorbic acid, 500-544 mCi, 48.1-51.7 mCi/mL, GE Solid Target, n=2, T0 | [1]; bracketing ~50 mCi/mL, 31.25 mg ascorbic acid, 500-544 mCi, 48.1-51.7 mCi/mL, GE Solid Target, n=2, T6 (6 h) | [2]; 25 mg ascorbic acid, 10.2 mCi, 0.97 mCi/mL, IRE Galli Eo, n=1, T0 | [2]; 25 mg ascorbic acid, 10.2 mCi, 0.97 mCi/mL, IRE Galli Eo, n=1, T1 (1 h) | [2]; 25 mg ascorbic acid, 19.5-20.0 mCi, 1.85-1.90 mCi/mL, EZAG GalliaPharm, n=2, T0 | [2]; 25 mg ascorbic acid, 19.5-20.0 mCi, 1.85-1.90 mCi/mL, EZAG GalliaPharm, n=2, T1 (1 h) | [2]; 25 mg ascorbic acid, 23.3-24 mCi, 2.22-2.28 mCi/mL, IRE Galli Eo, n=2, T0 | [2]; 25 mg ascorbic acid, 23.3-24 mCi, 2.22-2.28 mCi/mL, IRE Galli Eo, n=2, T4 (4 h) | [2]; 25 mg ascorbic acid, 46.0-46.1 mCi, 4.38-4.39 mCi/mL, EZAG GalliaPharm, n=2, T0 | [2]; 25 mg ascorbic acid, 46.0-46.1 mCi, 4.38-4.39 mCi/mL, EZAG GalliaPharm, n=2, T4 (4 h) | [2]; control, 0 mg ascorbic acid, 70 mCi, GE Solid Target, n=1, T0 | [2]; control, 0 mg ascorbic acid, 70 mCi, GE Solid Target, n=1, T4 (4 h) | [2]; validation batches, 25 mg ascorbic acid, 51.6-62.7 mCi, 4.56-5.88 mCi/mL, IRE Galli Eo, n=3, T0 | [2]; validation batches, 25 mg ascorbic acid, 51.6-62.7 mCi, 4.56-5.88 mCi/mL, IRE Galli Eo, n=3, T4 (4 h) | [2]; validation batches, 25 mg ascorbic acid, 53.3-74.4 mCi, 5.03-6.92 mCi/mL, GE Liquid target, n=3, T0 | [2]; validation batches, 25 mg ascorbic acid, 53.3-74.4 mCi, 5.03-6.92 mCi/mL, GE Liquid target, n=3, T4 (4 h) | [2]; validation batches, 25 mg ascorbic acid, 65.0-66.4 mCi, 5.74-6.15 mCi/mL, EZAG GalliaPharm, n=3, T0 | [2]; validation batches, 25 mg ascorbic acid, 65.0-66.4 mCi, 5.74-6.15 mCi/mL, EZAG GalliaPharm, n=3, T4 (4 h) | [2]; validation batches, 25 mg ascorbic acid, 537-551 mCi, 50.2-51.6 mCi/mL, GE Solid Target, n=3, T0 | [2]; validation batches, 25 mg ascorbic acid, 537-551 mCi, 50.2-51.6 mCi/mL, GE Solid Target, n=3, T6 (6 h) | [2]; validation batches, 25 mg ascorbic acid, 555-564 mCi, 51.1-52.7 mCi/mL, ARTMS Solid Target, n=3, T0 | [2]; validation batches, 25 mg ascorbic acid, 555-564 mCi, 51.1-52.7 mCi/mL, ARTMS Solid Target, n=3, T6 (6 h)
